Patent US6509369B2, “Anti-inflammatory compounds” (Ortho-McNeil Pharmaceutical, Inc., priority 1997, dated 2003)

Biological target: T1, human glucocorticoid receptor (hGR) (Homo sapiens, UniProt P04150)
T1 construct: made in house; host or cells: Sf21 insect cells infected with baculovirus hGR, OR IM9 lymphoblast cell line (endogenous hGR)
T1 sequence (P04150 1-777): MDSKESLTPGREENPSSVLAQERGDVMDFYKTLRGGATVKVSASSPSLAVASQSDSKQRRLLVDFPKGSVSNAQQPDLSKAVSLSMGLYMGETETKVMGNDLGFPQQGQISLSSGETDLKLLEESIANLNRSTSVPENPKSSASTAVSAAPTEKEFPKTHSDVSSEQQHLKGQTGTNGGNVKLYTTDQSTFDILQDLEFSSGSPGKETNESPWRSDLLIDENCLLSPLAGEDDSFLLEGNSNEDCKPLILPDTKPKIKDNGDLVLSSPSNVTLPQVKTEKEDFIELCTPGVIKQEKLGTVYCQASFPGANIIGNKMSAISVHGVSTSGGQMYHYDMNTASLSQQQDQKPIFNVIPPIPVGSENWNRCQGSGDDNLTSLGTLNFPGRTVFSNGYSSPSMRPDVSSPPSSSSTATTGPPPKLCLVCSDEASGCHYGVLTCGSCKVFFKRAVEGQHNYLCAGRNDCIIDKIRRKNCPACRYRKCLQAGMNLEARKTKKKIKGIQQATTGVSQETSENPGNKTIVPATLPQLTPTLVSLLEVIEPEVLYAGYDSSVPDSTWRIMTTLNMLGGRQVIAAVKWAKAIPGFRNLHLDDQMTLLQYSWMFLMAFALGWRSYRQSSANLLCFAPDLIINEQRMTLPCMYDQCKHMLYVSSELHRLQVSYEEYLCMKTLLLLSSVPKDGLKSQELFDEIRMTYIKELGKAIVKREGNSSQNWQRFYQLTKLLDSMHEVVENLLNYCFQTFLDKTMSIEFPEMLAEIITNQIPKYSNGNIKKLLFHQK
Assay: human glucocorticoid receptor binding assay (displacement of 3(H) Triamcinolone acetonide)
Conditions: not given
Protocol: A human glucocorticoid receptor binding assay was carried out to determine the extent to which the compounds of this invention have the ability to bind to human glucocorticoid receptors. This binding ability may be indicative of the antiinflammatory activity of the compound. The test was carried out as follows.
Human glucocorticoid receptors were prepared from either insect cells (Sf21) infected with baculovirus hGR or from a lymphoblast cell line which expresses high levels of endogenous hGR (IM9). The receptor binding reactions, with or without test compounds, were set up in 96-well microtiter plates which were previously siliconized with SIGMACOTE™, a chlorinated organopolysiloxane in heptane. The binding components, 3(H) Triamcinolone acetonide (TAA), glycerol/molybdate-containing buffer and unlabeled compounds were added to the wells using a combination of BIOMEK laboratory automation system and repeat pipettes. After four hours of incubation, the samples were precipitated with polyethylene glycol and filtered through Whatman GF/F paper using a TOMTEK cell harvester. The filter mate with 96 samples were bound to a solid-phase scintillant and directly counted in a BETAPLATE counter. […] The activity of test compounds to displace 3(H) TAA binding to hGR is also expressed as percent inhibition at 1 μM.

First: COc1ccc(CC(=O)NCC(c2ccccc2)C(c2ccccc2)c2ccccc2)cc1 (stereo not shown) [Compound 6]
Second: O=C(Cc1ccc(Cl)c(Cl)c1)NCC(c1ccccc1)C(c1ccccc1)c1ccccc1 (stereo not shown) [Compound 9]
The IC50 of the first is 1.6-fold lower: 0.91 µM for the first, 1.48 µM for the second.

Compared with `O=C(NCC(c1ccccc1)C(c1ccccc1)c1ccccc1)C(c1ccccc1)c1ccccc1` (stereo not shown) [Compound 13], `O=C(NCC(c1ccccc1)C(c1ccccc1)c1ccccc1)Oc1ccccc1` (stereo not shown) [Compound 56] is 2.5-fold lower in IC50: 0.78 µM for the first, 0.31 µM for the second.

Compared with `O=C(CCc1ccccc1Cl)NCC(c1ccccc1)C(c1ccccc1)c1ccccc1` (stereo not shown) [Compound 22], `O=C(NCC(c1ccccc1)C(c1ccccc1)c1ccccc1)Nc1ccccc1Cl` (stereo not shown) [Compound 52] is 2.7-fold higher in IC50: 0.103 µM for the first, 0.273 µM for the second. The first is the more potent here.

`O=S(=O)(Cc1ccccc1)NCC(c1ccccc1)C(c1ccccc1)c1ccccc1` (stereo not shown) [Compound 25] and `O=C(NCc1ccccc1)NCC(c1ccccc1)C(c1ccccc1)c1ccccc1` (stereo not shown) [Compound 54] are within 1.5-fold of each other in IC50: 0.21 µM for the first, 0.219 µM for the second.

Compared with `Cc1ccc(S(=O)(=O)NCC(c2ccccc2)C(c2ccccc2)c2ccccc2)cc1` (stereo not shown) [Compound 26], `Cc1ccc(S(=O)(=O)CC(=O)NCC(c2ccccc2)C(c2ccccc2)c2ccccc2)cc1` (stereo not shown) [Compound 28] is 3.1-fold lower in IC50: 0.175 µM for the first, 0.057 µM for the second.

Compared with `O=C(CS(=O)(=O)c1ccccc1)NCC(c1ccccc1)C(c1ccccc1)c1ccccc1` (stereo not shown) [Compound 27], `O=C(NCC(c1ccccc1)C(c1ccccc1)c1ccccc1)Nc1ccccc1F` (stereo not shown) [Compound 53] is 4.4-fold higher in IC50: 0.067 µM for the first, 0.293 µM for the second.

Compared with `Cc1ccc(C(=O)NCC(c2ccccc2)C(c2ccccc2)c2ccccc2)s1` (stereo not shown) [Compound 30], `O=C(NCC(c1ccccc1)C(c1ccccc1)c1ccccc1)c1cc2ccccc2s1` (stereo not shown) [Compound 43] is 9.9-fold higher in IC50: 0.05 µM for the first, 0.495 µM for the second. The first is the more potent here.

`O=C(Cc1cccs1)NCC(c1ccccc1)C(c1ccc(F)cc1)c1ccc(F)cc1` (stereo not shown) [Compound 31] and `O=C(Cc1cccs1)NCC(c1ccc(I)cc1)C(c1ccccc1)c1ccccc1` (stereo not shown) [Compound 33] are within 1.5-fold of each other in IC50: 0.008 µM for the first, 0.0086 µM for the second.

Going from `O=C(Cc1ccsc1)NCC(c1ccc(Cl)cc1)C(c1ccccc1)c1ccccc1` (stereo not shown) [Compound 35] to `O=S(=O)(NCC(c1ccc(Cl)cc1)C(c1ccccc1)c1ccccc1)c1cccs1` (stereo not shown) [Compound 41], the IC50 rises from 0.054 µM to 0.491 µM (9.1-fold). The first is the more potent here.

Going from `O=C(C=Cc1cccs1)NCC(c1ccccc1)C(c1ccccc1)c1ccccc1` (stereo not shown) [Compound 38] to `O=C(C=Cc1ccsc1)NCC(c1ccccc1)C(c1ccccc1)c1ccccc1` (stereo not shown) [Compound 39], the IC50 rises from 0.189 µM to 0.727 µM (3.8-fold). The first is the more potent here.

Going from `CN(CC(c1ccccc1)C(c1ccccc1)c1ccccc1)C(=O)Cc1cccs1` (stereo not shown) [Compound 44] to `CC(C)C(=O)NCC(c1ccccc1)C(c1ccccc1)c1ccccc1` (stereo not shown) [Compound 61], the IC50 rises from 0.133 µM to 0.584 µM (4.4-fold).

Going from `O=C(NCc1ccc(Cl)cc1Cl)NCC(c1ccccc1)C(c1ccccc1)c1ccccc1` (stereo not shown) [Compound 55] to `O=C(NCC(c1ccccc1)C(c1ccccc1)c1ccccc1)Oc1ccc(F)cc1` (stereo not shown) [Compound 58], the IC50 rises from 0.121 µM to 0.24 µM (2-fold).

First: O=C(NCC(c1ccccc1)C(c1ccccc1)c1ccccc1)Oc1ccc2ccccc2c1 (stereo not shown) [Compound 59]
Second: CCOC(=O)CC(=O)NCC(c1ccccc1)C(c1ccccc1)c1ccccc1 (stereo not shown) [Compound 65]
The IC50 of the first is 6-fold lower: 0.155 µM for the first, 0.937 µM for the second. The first is the more potent here.

Compared with `CCCC(=O)NCC(c1ccccc1)C(c1ccccc1)c1ccccc1` (stereo not shown) [Compound 60], `CCCCC(=O)NCC(c1ccccc1)C(c1ccccc1)c1ccccc1` (stereo not shown) [Compound 62] is 3.7-fold lower in IC50: 0.446 µM for the first, 0.121 µM for the second.

`CC(C)CC(=O)NCC(c1ccccc1)C(c1ccccc1)c1ccccc1` (stereo not shown) [Compound 63] and `CC(C)(C)C(=O)NCC(c1ccccc1)C(c1ccccc1)c1ccccc1` (stereo not shown) [Compound 64] are within 1.5-fold of each other in IC50: 0.316 µM for the first, 0.296 µM for the second.

`O=C(Cc1ccccc1)NCC(c1ccccc1)C1c2ccccc2CCc2ccccc21` (stereo not shown) [Compound 73] and `O=C(Cc1ccsc1)NCC(c1ccccc1)C1c2ccccc2CCc2ccccc21` (stereo not shown) [Compound 76] are within 1.5-fold of each other in IC50: 0.77 µM for the first, 0.571 µM for the second.

`COc1ccccc1CCC(=O)NCC(c1ccccc1)C1c2ccccc2CCc2ccccc21` (stereo not shown) [Compound 74] and `O=C(Cc1cccs1)NCC(c1ccccc1)C1c2ccccc2CCc2ccccc21` (stereo not shown) [Compound 75] are within 1.5-fold of each other in IC50: 0.388 µM for the first, 0.363 µM for the second.

Compared with `Cc1ccc(C(=O)NCC(c2ccccc2)C2c3ccccc3CCc3ccccc32)s1` (stereo not shown) [Compound 77], `Cc1ccc(C(=O)NCC2(c3ccccc3)CC2(c2ccccc2)c2ccccc2)s1` (stereo not shown) [Compound 91] is 2.1-fold lower in IC50: 0.882 µM for the first, 0.421 µM for the second. The second is the more potent here.

Going from `COc1ccccc1CCC(=O)NCC1(c2ccccc2)CC1(c1ccccc1)c1ccccc1` (stereo not shown) [Compound 81] to `O=C(Cc1cccs1)NCC1(c2ccccc2)CC1(c1ccccc1)c1ccccc1` (stereo not shown) [Compound 88], the IC50 falls from 0.709 µM to 0.425 µM (1.7-fold).

Work on `O=C(NCC1(c2ccccc2)CC1(c1ccccc1)c1ccccc1)c1cccs1` (stereo not shown) [Compound 90] yielded an IC50 of 0.612 µM.

Same assay, conditions: concentration not given

Compared with `COc1ccccc1NC(=O)NCC(c1ccccc1)C(c1ccccc1)c1ccccc1` (stereo not shown) [Compound 51], `COc1ccccc1CC(=O)NCC(c1ccccc1)C1c2ccccc2-c2ccccc21` (stereo not shown) [Compound 67] is lower in “hGR, value given as %” value: 32% for the first, 23% for the second.

`COc1ccccc1CCC(=O)NCC(c1ccccc1)C1c2ccccc2-c2ccccc21` (stereo not shown) [Compound 70] was tested, and the “hGR, value given as %” value was 53%.

Test system: oxazolone-induced ear swelling (MOCH) in albino male CD-1 mice
Assay: mouse oxazolone-induced contact hypersensitization (MOCH) ear swelling
Type: in vivo
Design: % Inhibition MOCH: concentration or dose not given beside the values
Conditions: mouse, in vivo
Protocol: Several triphenylpropanamide compounds of this invention, having varying affinities for the human glucocorticoid receptor, were tested for topical antiinflammatory activity in mouse ear inflammation models. […] Compounds having receptor affinities closer to hydrocortisone were as nearly active as hydrocortisone in suppressing mouse oxazolone-induced contact hypersensitization (MOCH) and phorbol ester-induced ear edema. The in vivo studies of this example were conducted as follows.
In determining the MOCH using the compounds of this invention, albino male CD-1 mice, 7-9 weeks old were induced on the shaved abdomen with 50 μl of 3% oxazolone in acetone/corn oil (Day 0). On Day 5, a 20 μl volume of 2% oxazolone in acetone was applied to the dorsal left ear of the mouse . Compounds (made in ethanol/propylene glycol, 70:30) were applied to the left ear in 20 μl volume, one hour after oxazolone challenge. The right ear was not treated. The mice were sacrificed by carbon dioxide inhalation 24 hours after oxazolone challenge, the left and right ears were removed and a 7 mm biopsy was removed from each ear and weighed. The difference in biopsy weights between the right and left ears was calculated. Antiinflammatory effects of compounds were evident as an inhibition of the increase in ear weight.

Going from `O=C(Cc1cccs1)NCC(c1ccc2c(c1)OCO2)C(c1ccccc1)c1ccccc1` (stereo not shown) [Compound 99] to `O=C(Cc1ccccn1)NCC(c1ccc2c(c1)OCO2)C(c1ccccc1)c1ccccc1` (stereo not shown) [Compound 102], the “% Inhibition MOCH” value rises from 35% to 51%.

Compared with `Cc1c(CC(=O)NCC(c2ccc3c(c2)OCO3)C(c2ccccc2)c2ccccc2)sc2ccc(Cl)cc12` (stereo not shown) [Compound 100], `O=C(Cc1cc2cc(Cl)ccc2s1)NCC(c1ccc2c(c1)OCO2)C(c1ccccc1)c1ccccc1` (stereo not shown) [Compound 101] is higher in “% Inhibition MOCH” value: 18% for the first, 26% for the second.

First: O=C(Cc1cccc(C(F)(F)F)c1)NCC(c1ccc2c(c1)OCO2)C(c1ccccc1)c1ccccc1 (stereo not shown) [Compound 103]
Second: O=C(Cc1cccc(F)c1)NCC(c1ccc2c(c1)OCO2)C(c1ccccc1)c1ccccc1 (stereo not shown) [Compound 110]
The “% Inhibition MOCH” value of the first is higher: 37% for the first, 20% for the second.

Compared with `O=C(Cc1cc(C(F)(F)F)cc(C(F)(F)F)c1)NCC(c1ccc2c(c1)OCO2)C(c1ccccc1)c1ccccc1` (stereo not shown) [Compound 104], `COc1cc(CC(=O)NCC(c2ccc3c(c2)OCO3)C(c2ccccc2)c2ccccc2)cc(OC)c1` (stereo not shown) [Compound 108] is lower in “% Inhibition MOCH” value: 52% for the first, 38% for the second.

First: O=C(Cc1ccc([N+](=O)[O-])cc1)NCC(c1ccc2c(c1)OCO2)C(c1ccccc1)c1ccccc1 (stereo not shown) [Compound 105]
Second: O=C(Cc1ccccc1)NCC(c1ccc2c(c1)OCO2)C(c1ccccc1)c1ccccc1 (stereo not shown) [Compound 109]
The “% Inhibition MOCH” value of the first is higher: 24% for the first, 22% for the second.

Going from `CCCCOc1ccc(CC(=O)NCC(c2ccc3c(c2)OCO3)C(c2ccccc2)c2ccccc2)cc1` (stereo not shown) [Compound 106] to `COc1ccccc1CC(=O)NCC(c1ccc2c(c1)OCO2)C(c1ccccc1)c1ccccc1` (stereo not shown) [Compound 107], the “% Inhibition MOCH” value falls from 52% to 28%.

In the case of `O=C(Cc1ccc(F)cc1F)NCC(c1ccc2c(c1)OCO2)C(c1ccccc1)c1ccccc1` (stereo not shown) [Compound 111], the “% Inhibition MOCH” value is reported as 60%.

Same assay, conditions: topical to mouse ear, 1 mg, one hour after oxazolone challenge, ear biopsy weight at 24 hours

Compared with `O=C(NCC(c1ccccc1)C(c1ccccc1)c1ccccc1)Nc1ccccc1` (stereo not shown) [Compound 50], `O=C(Cc1ccc(Cl)cc1)NCC(c1ccc2c(c1)OCO2)C(c1ccccc1)c1ccccc1` (stereo not shown) [Compound 98] is higher in “Oxazolone Ear Swelling (MOCH) % inhibition vs. Vehicle at 1 mg” value: 30% for the first, 85% for the second.

Same assay, conditions: topical, mouse ear

`O=C(Cc1ccc(Cl)cc1)NCC(c1ccc2c(c1)OCO2)C(c1ccccc1)c1ccccc1` (stereo not shown) [Compound 98] was tested, and the “topical antiinflammatory activity in the oxazolone model (in words)” value was “equiactive with hydrocortisone”.
